Here are results for 17 molecules from ChEMBL document CHEMBL3860069, “A new Suzuki synthesis of triphenylethylenes that inhibit aromatase and bind to estrogen receptors α and β” (Bioorg Med Chem, 2016).

Series [1] has as its target T1, Estrogen receptor beta (Homo sapiens, UniProt Q92731). Briefly: Displacement of fluorescent ES2 from recombinant human ERbeta at 100 uM after 2 hrs in absence of light by fluorometric analysis relative to control.
Series [2] concerns the target T2, Estrogen receptor (Homo sapiens) (UniProt P03372).
T2 sequence (whole entry): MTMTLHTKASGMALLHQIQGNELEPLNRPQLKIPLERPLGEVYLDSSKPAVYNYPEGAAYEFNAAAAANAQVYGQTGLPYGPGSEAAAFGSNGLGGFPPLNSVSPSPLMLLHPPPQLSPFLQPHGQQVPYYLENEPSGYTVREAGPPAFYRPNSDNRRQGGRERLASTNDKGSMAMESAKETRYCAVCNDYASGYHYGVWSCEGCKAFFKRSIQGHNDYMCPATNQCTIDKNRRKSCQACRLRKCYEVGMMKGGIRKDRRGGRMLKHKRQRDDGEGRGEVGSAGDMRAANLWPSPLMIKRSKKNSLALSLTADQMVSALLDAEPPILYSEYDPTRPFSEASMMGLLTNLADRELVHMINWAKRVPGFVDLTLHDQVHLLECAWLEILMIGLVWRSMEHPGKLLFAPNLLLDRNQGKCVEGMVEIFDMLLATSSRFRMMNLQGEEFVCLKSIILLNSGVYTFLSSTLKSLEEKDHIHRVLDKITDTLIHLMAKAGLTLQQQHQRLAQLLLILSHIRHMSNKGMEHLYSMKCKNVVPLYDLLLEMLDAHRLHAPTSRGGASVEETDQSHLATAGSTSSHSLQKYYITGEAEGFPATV
Briefly: Displacement of fluorescent ES2 from recombinant human ERalpha at 100 uM after 2 hrs in absence of light by fluorometric analysis relative to control.

In series [3] the target is T3, CYP19 (aromatase) (Homo sapiens, UniProt P11511).
T3 sequence (P11511 whole entry): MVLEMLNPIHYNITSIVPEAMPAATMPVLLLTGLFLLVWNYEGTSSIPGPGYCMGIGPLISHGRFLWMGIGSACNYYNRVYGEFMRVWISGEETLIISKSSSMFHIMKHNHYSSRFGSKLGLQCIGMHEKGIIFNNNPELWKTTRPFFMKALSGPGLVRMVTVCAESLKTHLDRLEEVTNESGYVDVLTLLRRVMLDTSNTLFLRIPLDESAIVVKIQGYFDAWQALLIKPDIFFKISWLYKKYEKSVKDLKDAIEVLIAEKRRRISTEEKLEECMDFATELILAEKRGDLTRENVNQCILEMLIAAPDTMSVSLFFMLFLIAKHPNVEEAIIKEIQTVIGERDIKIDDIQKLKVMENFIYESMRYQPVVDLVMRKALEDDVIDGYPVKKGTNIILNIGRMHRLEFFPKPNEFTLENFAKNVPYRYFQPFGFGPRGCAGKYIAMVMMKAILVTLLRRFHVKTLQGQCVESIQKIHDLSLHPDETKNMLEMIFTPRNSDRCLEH
Put plainly: in vitro. The settings on record: recombinant human microsomal CYP19, probe MFC.
Description: Inhibition of recombinant human microsomal CYP19 at 50 uM using MFC as substrate measured after 30 mins by fluorometric analysis relative to control

Series [4] deals with T1, Estrogen receptor beta.
Description: Displacement of fluorescent ES2 from recombinant human ERbeta after 2 hrs in absence of light by fluorometric analysis
For series [5], the target named is T4, Estrogen receptor (Homo sapiens, UniProt P03372).
T4 sequence (P03372 whole entry): T2 sequence (whole entry)
Description: Displacement of fluorescent ES2 from recombinant human ERalpha after 2 hrs in absence of light by fluorometric analysis

The target in series [6] is T5, Aromatase (Homo sapiens, UniProt P11511).
T5 sequence (P11511 whole entry): T3 sequence (P11511 whole entry)
Description: Inhibition of recombinant human microsomal CYP19 using MFC as substrate measured after 30 mins by fluorometric analysis

Broadly, the inhibition is the change of the read-out against control, counted positive when it falls. For orientation: EC50 means the concentration needed to bring the measured effect to its halfway point. Read a low EC50 as higher potency in that assay. By IC50 is commonly meant the concentration that gives 50% inhibition. Read a low IC50 as higher potency.

T1 sequence (Q92731 whole entry): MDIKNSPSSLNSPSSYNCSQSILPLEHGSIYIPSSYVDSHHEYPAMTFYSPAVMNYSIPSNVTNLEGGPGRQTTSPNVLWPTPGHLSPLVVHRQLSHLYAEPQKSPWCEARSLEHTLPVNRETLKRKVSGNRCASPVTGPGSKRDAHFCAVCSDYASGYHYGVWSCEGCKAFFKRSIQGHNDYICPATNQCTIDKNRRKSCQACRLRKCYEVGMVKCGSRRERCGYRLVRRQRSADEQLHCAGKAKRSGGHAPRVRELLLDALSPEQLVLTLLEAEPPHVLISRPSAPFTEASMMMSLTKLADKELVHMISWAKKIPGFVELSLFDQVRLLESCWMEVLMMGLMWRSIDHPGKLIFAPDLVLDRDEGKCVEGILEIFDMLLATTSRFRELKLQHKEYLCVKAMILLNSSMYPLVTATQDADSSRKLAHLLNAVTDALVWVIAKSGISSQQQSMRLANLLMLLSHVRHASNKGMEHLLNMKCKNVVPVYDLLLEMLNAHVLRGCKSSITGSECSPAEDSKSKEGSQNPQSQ

As to `CCC(=C(c1ccc(O)cc1)c1ccc(O)cc1)c1ccc([N+](=O)[O-])cc1`, the inhibition stood at 66% in series [1] and 40% in series [2]. Besides, in series [3], the inhibition at 0.5 h, 50 µM turned out to be 78%.

As for `CC(=C(c1ccc(N)cc1)c1ccc(NCC(N)=O)cc1)c1ccc([N+](=O)[O-])cc1`, the EC50 in series [4] amounted to 218 nM; in series [5], 164 nM. In series [6], this molecule showed an IC50 of 645 nM. Further, the inhibition at 0.5 h, 50 µM in series [3] is greater than 90%.

For the molecule `CC/C(=C(/c1ccc(O)cc1)c1ccc(OCCN)cc1)c1ccccc1`, in series [3], the inhibition at 0.5 h, 50 µM was greater than 90%.

Turning to `CC/C(=C(/c1ccc(O)cc1)c1ccc(OCC(N)=O)cc1)c1ccccc1`, the inhibition came to 71% in series [1] and 57% in series [2]. Further, in series [6], half-maximal inhibition (IC50) required 9260 nM. Also, the inhibition at 0.5 h, 50 µM in series [3] was greater than 90%.

For the molecule `CCC(=C(c1ccc(N)cc1)c1ccc(NCC(N)=O)cc1)c1ccc([N+](=O)[O-])cc1`, the figures for the EC50 in series [4] and in series [5] were 346 nM and 451 nM, respectively. In series [6], this molecule registered an IC50 of 287 nM. Moreover, the inhibition at 0.5 h, 50 µM in series [3] was greater than 90%.

As to `CCC(=C(c1ccc(O)cc1)c1ccc(O)cc1)c1ccccc1`, the inhibition at 0.5 h, 50 µM in series [3] was greater than 90%.

Turning to `CCC(=C(c1ccc(O)cc1)c1ccc(OCCN)cc1)c1ccccc1`, the inhibition at 0.5 h, 50 µM in series [3] is greater than 90%.

`CC(=C(c1ccc(N)cc1)c1ccc(N)cc1)c1ccc([N+](=O)[O-])cc1`: the inhibition at 0.5 h, 50 µM in series [3] was greater than 90%.

For `CC(=C(c1ccc(O)cc1)c1ccc(O)cc1)c1ccc(N)cc1`, in series [3], the inhibition at 0.5 h, 50 µM was greater than 90%.

As to `CCC(=C(c1ccc(N)cc1)c1ccc(N)cc1)c1ccc([N+](=O)[O-])cc1`, the inhibition at 0.5 h, 50 µM in series [3] was greater than 90%.

Turning to `CCC(=C(c1ccc(O)cc1)c1ccc(O)cc1)c1ccc(N)cc1`, the inhibition at 0.5 h, 50 µM in series [3] was greater than 90%.

Regarding `CC(=C(c1ccc(N)cc1)c1ccc(N)cc1)c1ccc(N)cc1`, the inhibition in series [1] is 77%; in series [2], 31%. The inhibition at 0.5 h, 50 µM in series [3] was greater than 90%.

As to `CC/C(=C(\c1ccc(O)cc1)c1ccc(OCCN)cc1)c1ccccc1`, the inhibition at 0.5 h, 50 µM in series [3] is greater than 90%.

Consider `CCC(=C(c1ccc(O)cc1)c1ccc(OCC(N)=O)cc1)c1ccc([N+](=O)[O-])cc1`, for which the inhibition in series [1] and in series [2] was 0% throughout. Also, in series [3], the inhibition at 0.5 h, 50 µM was 76%.

On to `CCC(=C(c1ccc(N)cc1)c1ccc(N)cc1)c1ccc(N)cc1`, for which the results for the inhibition in series [1] and in series [2] were 76% and 25%, respectively. For the same molecule, the inhibition at 0.5 h, 50 µM in series [3] is greater than 90%.

Take `CC(=C(c1ccc(O)cc1)c1ccc(OCC(N)=O)cc1)c1ccc([N+](=O)[O-])cc1`: the inhibition in series [1] and in series [2] was 0% throughout. The molecule further returned an IC50 in series [6] of 9720 nM. Also, the inhibition at 0.5 h, 50 µM in series [3] was greater than 90%.

`CC(=C(c1ccc(O)cc1)c1ccc(O)cc1)c1ccc([N+](=O)[O-])cc1`: the inhibition came out at 55% in series [1] and 19% in series [2]. Also, the inhibition at 0.5 h, 50 µM in series [3] is 75%.
